Measured values reported in ChEMBL document CHEMBL2163202, “Enhanced Ca2+ entry, ceramide formation, and apoptotic death of erythrocytes triggered by plumbagin” (J Nat Prod, 2012).
Active and inactive are the calls of the source. No cut-off for these calls is given here.

Experiments:
[1] = test system: Erythrocyte; test: Stimulation of ceramide formation in human erythrocytes at 2 uM after 48 hrs by FITC-labeled anticeramide antibody method; type: functional, cell-based
[2] = test system: Erythrocyte; test: Induction of eryptosis in human erythrocytes assessed as cell membrane scrambling at 1 uM after 48 hrs by annexin V staining-based FACS analysis in nominal absence of extracellular Ca2+; type: functional
[3] = test system: Erythrocyte; test: Induction of eryptosis in human erythrocytes assessed as cell membrane scrambling at 1 uM after 48 hrs by annexin V staining-based FACS analysis in presence of extracellular Ca2+; type: functional
[4] = test system: Erythrocyte; test: Hemolysis in human erythrocytes assessed as release of hemoglobin at 1 uM after 48 hrs by spectrophotometry; type: functional, cell-based
[5] = test system: Erythrocyte; test: Induction of eryptosis in human erythrocytes assessed as phosphatidylserine exposure up to 2 uM after 48 hrs by annexin V staining-based FACS analysis; type: functional, cell-based
[6] = test system: Erythrocyte; test: Induction of eryptosis in human erythrocytes assessed as phosphatidylserine exposure at 1 uM after 48 hrs by annexin V staining-based FACS analysis; type: functional, cell-based
[7] = test system: Erythrocyte; test: Induction of eryptosis in human erythrocytes assessed as reduction in cell volume measuring forward scatter up to 2 uM after 48 hrs by FACS analysis; type: functional, cell-based
[8] = test system: Erythrocyte; test: Hemolysis in human erythrocytes assessed as release of hemoglobin up to 2 uM after 48 hrs by spectrophotometry; type: functional, cell-based
[9] = test system: Erythrocyte; test: Induction of eryptosis in human erythrocytes assessed as increase in cytosolic Ca2+ at 0.5 uM after 48 hrs by Fluo-3/AM-based FACS analysis; type: functional, cell-based
[10] = test system: Erythrocyte; test: Induction of eryptosis in human erythrocytes assessed as increase in cytosolic Ca2+ up to 2 uM after 48 hrs by Fluo-3/AM-based FACS analysis; type: functional, cell-based
[11] = test system: Erythrocyte; test: Induction of eryptosis in human erythrocytes assessed as reduction in cell volume measuring forward scatter at 1.5 uM after 48 hrs by FACS analysis; type: functional, cell-based

Question: Which results are given for `CC1=CC(=O)c2c(O)cccc2C1=O`?
Answer: Activity [1]: Active; Activity [2]: inactive; Activity [3]: Active; Activity [4]: Active; Activity [5]: Active; Activity [6]: Active; Activity [7]: Active; Activity [8]: Active; Activity [9]: Active; Activity [10]: Active; Activity [11]: Active
